Results on seven molecules are retold here after paper PMC11240926, “Integrating In Silico and In Vitro Approaches to Identify Natural Peptides with Selective Cytotoxicity against Cancer Cells” (International Journal of Molecular Sciences, 2024).

Ends that are not written are not given here. Peptide text beside a SMILES is read from it.

The test system of series [1] is BT474 cells. The class given is cell-based, human. Particulars: MTT, 48 h. The method, then:
(§1) The culture medium used for the cancer cell lines included 10% fetal bovine serum (Gibco, Grand Island, NY, USA) and 1% penicillin/streptomycin (Gibco) in 5% CO2 at 37 °C. Cells were seeded into 96-well tissue culture plates at a concentration of 1 × 10^4 cells per 200 μL per well and allowed to settle overnight. The cells were then treated with serial dilutions of various ACPs. After 48 h of incubation, cell viability for each line was assessed using the MTT colorimetric assay (Sigma-Aldrich, St. Louis, MO, USA). The peptide preparation and dilution in our anticancer assays are as follows: ACPs (10 mg) were dissolved in 100 μL of DMSO to generate 100 mg/mL stock solutions. These stock solutions were then diluted 100 times with a culture medium to obtain a 1 mg/mL solution. Finally, serial dilutions were prepared in a culture medium containing 1% DMSO to achieve the desired ACP concentrations for the MTT assay.

In series [2] the test system is DBTRG brain tumor cells. The class given is cell-based. As to conditions: human. The method, then: as §1
The test system of series [3] is Hs578T. Format: cell-based, human. As to conditions: Breast, MTT assay. The text has this:
Supplement ijms-25-06848-s001.zip/IJMS_Supplementary Table S2.xlsx, sheet "Table S2" | column: ACP1; ACP2; ACP3; ACP4; ACP5; ACP6; ACP7; ACP8; ACP9; ACP10; ACP11; ACP12

The test system of series [4] is A549. The class given is cell-based, human. As to conditions: Lung, MTT assay. The method, then: as §1
(In general: Formazan colour is commonly taken as a measure of viable cells.)

The subject of series [5] is A431. The class given is cell-based, human. As to conditions: Skin, MTT assay. The method, then:
as §1

Series [6] has as its system SKOV-3 ovarian carcinoma. The class given is cell-based, human. Particulars: MTT, 48 h. The method, then: as §1
Series [7] deals with HT1080 fibrosarcoma. Format: cell-based, human. Particulars: MTT, 48 h. As to the method: as §1
For series [8], the system named is DU145 prostate cancer. Format: cell-based, human. As to conditions: MTT, 48 h. As to the method: as §1
Series [9] has as its system cancer cell lines. The experiment in a line: MTT colorimetric assay, panel of over 30 cancer cell lines. Format: cell-based, human. Particulars: 48 h. As to the method:
as §1

For series [10], the system named is Mahlavu. Format: cell-based, human. As to conditions: Mahlavu liver cancer cells, MTT, 48 h. The method, then: as §1
The subject of series [11] is HepG2. The class given is cell-based, human. As to conditions: HepG2 liver cancer cells, MTT, 48 h. The method, then: as §1
Series [12] has as its system triple-negative breast cancer cell line MDA-MB-231. Format: cell-based, human. As to conditions: MDA-MB-231, MTT, 48 h. As to the method:
as §1

Series [13] relates to Burkitt lymphoma-derived Daudi cell line. Format: cell-based, human. As to conditions: MTT, 48 h. As to the method: as §1
The mark [14] stands for this setting: endometrial and hypopharyngeal cancer cells.

Turning to `CC[C@H](C)[C@H](NC(=O)[C@@H]1CCCN1C(=O)[C@H](Cc1c[nH]c2ccccc12)NC(=O)[C@H](CO)NC(=O)[C@H](CS)NC(=O)[C@H](CO)NC(=O)[C@H](CS)NC(=O)CNC(=O)[C@@H]1CCCN1C(=O)[C@@H](NC(=O)[C@H](CC(N)=O)NC(=O)[C@H](CS)NC(=O)[C@@H](NC(=O)CNC(=O)CNC(=O)[C@H](Cc1ccccc1)NC(=O)[C@H](CS)NC(=O)[C@@H](NC(=O)[C@H](CCC(=O)O)NC(=O)CNC(=O)[C@H](CS)NC(=O)[C@@H](NC(=O)[C@@H](NC(=O)[C@@H]1CCCN1C(=O)[C@@H](NC(=O)[C@@H](NC(=O)[C@@H](N)CO)C(C)C)[C@@H](C)O)[C@@H](C)CC)C(C)C)[C@@H](C)O)[C@@H](C)O)[C@@H](C)O)C(=O)N[C@@H](CS)C(=O)N[C@H](C(=O)N[C@@H](CCCCN)C(=O)O)[C@@H](C)O` [ACP10] (H-SVTPIVCGETCFGGTCNTPGCSCSWPICTK-OH; N-terminus and C-terminus assumed), the “cytotoxicity, in words” value in series [1] is given as “pronounced cytotoxicity”.
In the case of EQQQQQQPQNRRFRE [ACP11], in [2], inhibition was half-maximal at 32.1 µM (IC50). In addition, the “Cytotoxicity against cancer cell line Hs578T” value in series [3] was over 1000. Besides, the “Cytotoxicity against cancer cell line A549” value in series [4] is over 1000. Also, the “Cytotoxicity against cancer cell line A431” value in series [5] is over 1000.
Regarding “YKQCHKKGGHCFPKEKICIPPSSDFGKMDCRWRWKCCKKGSG (cysteines drawn unpaired) [ACP8]”, the “selective cytotoxicity, in words” value in [6], in [7] and in series [8] was “selectively targeting” each time.
Consider `CC[C@H](C)[C@H](NC(=O)[C@H](CS)NC(=O)[C@@H]1CCCN1C(=O)[C@@H](NC(=O)[C@H](Cc1ccccc1)NC(=O)[C@@H](NC(=O)[C@H](CS)NC(=O)[C@H](CO)NC(=O)[C@H](CCC(=O)O)NC(=O)CNC(=O)[C@H](CS)NC(=O)[C@@H]1CCCN1C(=O)[C@@H](NC(=O)[C@@H](NC(=O)CN)C(C)C)[C@@H](C)CC)C(C)C)[C@@H](C)CC)C(=O)N[C@@H](CO)C(=O)N[C@H](C(=O)N[C@@H](CC(C)C)C(=O)N[C@@H](CC(C)C)C(=O)NCC(=O)N[C@@H](CS)C(=O)N[C@@H](CO)C(=O)N[C@@H](CS)C(=O)N[C@@H](CCCCN)C(=O)N[C@@H](CC(N)=O)C(=O)N[C@@H](CCCCN)C(=O)N[C@H](C(=O)N[C@@H](CS)C(=O)N[C@@H](Cc1ccc(O)cc1)C(=O)N[C@@H](CCCNC(=N)N)C(=O)N[C@@H](CC(N)=O)C(=O)O)C(C)C)[C@@H](C)O` [ACP6] (H-GVIPCGESCVFIPCISTLLGCSCKNKVCYRN-OH), for which the “anticancer effects, in words” value in series [9] (setting [14]) is recorded as “affected”; in series [9] (liver and breast cancers), “notable anticancer effects”.
For the molecule GLLGVLGSVAKHVLPHVVPVIAEHL [ACP9], the “cytotoxicity, in words” value in [10] and in [11] was “particularly effective” throughout.
Consider “KSCCPNTTGRNIYNTCRFGGGSREVCASLSGCKIISASTCPSYPDK (cysteines drawn unpaired) [ACP7]”, for which the “anticancer effects, in words” value in [9] (setting [14]) is “affected”; in series [9] (liver and breast cancers), “notable anticancer effects”.
For FKGGGPYGQGVTRGQDLSGKDF [ACP12], the “anticancer activity, in words” value in [12] and in series [13] was “demonstrated anticancer activity” in each case. The “Cytotoxicity against cancer cell line A549” value in series [4] is recorded as over 1000.
